Legend:
CNS cancer cell lines = test: NCI five-dose testing, subpanel mean; type: cell-based; details: subpanel IV: CNS cancer
Experimental: (§1) Screening against the cancer cell lines was carried out at the National Cancer Institute (NCI, Bethesda, Maryland, USA) applying the standard protocol of the NCI[22].

Leukaemia cell lines = test: NCI five-dose testing, subpanel mean; type: cell-based; details: subpanel I: Leukaemia
Experimental: as §1

breast cancer cell lines = test: NCI five-dose testing, subpanel mean; type: cell-based; details: subpanel IX: breast cancer
Experimental: as §1

colon cancer cell lines = test: NCI five-dose testing, subpanel mean; type: cell-based; details: subpanel III: colon cancer
Experimental: as §1

melanoma cell lines = test: NCI five-dose testing, subpanel mean; type: cell-based; details: subpanel V: melanoma
Experimental: as §1

[1] = test system: non-small cell lung cancer cell lines; test: NCI five-dose testing, subpanel mean; type: cell-based; details: subpanel II: non-small cell lung cancer
Experimental: as §1

[2] = test system: ovarian cancer cell lines; test: NCI five-dose testing, subpanel mean; type: cell-based; details: subpanel VI: ovarian cancer
Experimental: as §1

[3] = test system: prostate cancer cell lines; test: NCI five-dose testing, subpanel mean; type: cell-based; details: subpanel VIII: prostate cancer
Experimental: as §1

renal cancer cell lines = test: NCI five-dose testing, subpanel mean; type: cell-based; details: subpanel VII: renal cancer
Experimental: as §1

[4] = test system: A498 renal cancer cell line; test: NCI five-dose testing; type: cell-based; details: A498
Experimental: as §1

[5] = test system: HOP-92 non-small cell lung cancer cell line; test: NCI five-dose testing; type: cell-based; details: HOP-92
Experimental: as §1

[6] = test system: HT-29 colon cancer cell line; test: NCI five-dose testing; type: cell-based; details: HT-29
Experimental: as §1

[7] = test system: K-562 leukaemia cell line; test: NCI five-dose testing; type: cell-based; details: K-562
Experimental: as §1

[8] = test system: MDA-MB-468 breast cancer cell line; test: NCI five-dose testing; type: cell-based; details: MDA-MB-468
Experimental: as §1

[9] = test system: OVCAR-4 ovarian cancer cell line; test: NCI five-dose testing; type: cell-based; details: OVCAR-4
Experimental: as §1

[10] = test system: PC-3 prostate cancer cell line; test: NCI five-dose testing; type: cell-based; details: PC-3
Experimental: as §1

[11] = test system: SK-MEL-5 melanoma cell line; test: NCI five-dose testing; type: cell-based; details: SK-MEL-5
Experimental: as §1

[12] = test system: U251 CNS cancer cell line; test: NCI five-dose testing; type: cell-based; details: U251
Experimental: as §1

ABL1 (T315I) = target: T1, ABL1 (T315I) (Homo sapiens, UniProt P00519, T315I); test: In vitro kinase screening (Kinase HotSpot); type: biochemical; details: single dose of 10 µM
T1 construct: purchased Reaction Biology Corp
Source text: (§2) To investigate the biological target of compound, Reaction Biology Corp. Kinase HotSpotSM service was used adopting standard assay protocol.

BRAF = target: T2, BRAF (Homo sapiens, UniProt P15056); test: In vitro kinase screening (Kinase HotSpot); type: biochemical; details: single dose of 10 µM
T2 construct: purchased Reaction Biology Corp
Source text: as §2

BRAF (V600E) = target: T3, BRAF (V600E) (Homo sapiens, UniProt P15056, V600E); test: In vitro kinase screening (Kinase HotSpot); type: biochemical; details: single dose of 10 µM, BRAF (V599E) in Table 6, BRAF (V600E) in text
T3 construct: purchased Reaction Biology Corp
Source text: as §2

CDK2/cyclin E = target: T4, CDK2/cyclin E (Homo sapiens, UniProt P24941); test: In vitro kinase screening (Kinase HotSpot); type: biochemical; details: single dose of 10 µM
T4 construct: purchased Reaction Biology Corp
Source text: as §2

EGFR = target: T5, EGFR (Homo sapiens, UniProt P00533); test: In vitro kinase screening (Kinase HotSpot); type: biochemical; details: single dose of 10 µM
T5 construct: purchased Reaction Biology Corp
Source text: as §2

GSK3b = target: T6, GSK3b (Homo sapiens, UniProt P49841); test: In vitro kinase screening (Kinase HotSpot); type: biochemical; details: single dose of 10 µM
T6 construct: purchased Reaction Biology Corp
Source text: as §2

IKKb/IKBKB = target: T7, IKKb/IKBKB (Homo sapiens, UniProt O14920); test: In vitro kinase screening (Kinase HotSpot); type: biochemical; details: single dose of 10 µM
T7 construct: purchased Reaction Biology Corp
T7 sequence (O14920 1-756): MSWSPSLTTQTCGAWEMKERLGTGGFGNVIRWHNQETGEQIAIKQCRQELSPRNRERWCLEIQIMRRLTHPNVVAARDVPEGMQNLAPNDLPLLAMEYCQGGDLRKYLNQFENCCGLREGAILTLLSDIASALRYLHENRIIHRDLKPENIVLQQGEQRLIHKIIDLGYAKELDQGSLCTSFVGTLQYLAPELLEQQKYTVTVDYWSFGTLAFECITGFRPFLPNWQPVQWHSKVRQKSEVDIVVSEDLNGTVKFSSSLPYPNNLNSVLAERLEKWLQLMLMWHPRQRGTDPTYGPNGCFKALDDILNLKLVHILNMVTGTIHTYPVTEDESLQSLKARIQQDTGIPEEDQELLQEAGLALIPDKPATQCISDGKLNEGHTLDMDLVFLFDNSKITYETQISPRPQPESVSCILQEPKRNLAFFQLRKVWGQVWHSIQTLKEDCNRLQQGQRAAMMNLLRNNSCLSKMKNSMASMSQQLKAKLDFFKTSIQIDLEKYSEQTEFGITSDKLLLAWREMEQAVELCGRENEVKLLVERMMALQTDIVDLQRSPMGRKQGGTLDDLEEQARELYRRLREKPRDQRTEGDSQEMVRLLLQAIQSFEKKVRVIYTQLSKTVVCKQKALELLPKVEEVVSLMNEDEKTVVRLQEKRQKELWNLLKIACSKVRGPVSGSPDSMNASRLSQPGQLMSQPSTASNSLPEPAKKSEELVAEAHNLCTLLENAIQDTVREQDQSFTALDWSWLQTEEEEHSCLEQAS
Source text: as §2

JNK1 = target: T8, JNK1 (Homo sapiens, UniProt P45983); test: In vitro kinase screening (Kinase HotSpot); type: biochemical; details: single dose of 10 µM
T8 construct: purchased Reaction Biology Corp
Source text: as §2

JNK2 = target: T9, JNK2 (Homo sapiens, UniProt P45984); test: In vitro kinase screening (Kinase HotSpot); type: biochemical; details: single dose of 10 µM
T9 construct: purchased Reaction Biology Corp
Source text: as §2

JNK3 = target: T10, JNK3 (Homo sapiens, UniProt P53779); test: In vitro kinase screening (Kinase HotSpot); type: biochemical; details: single dose of 10 µM
T10 construct: purchased Reaction Biology Corp
Source text: as §2

P38a/MAPK14 = target: T11, P38a/MAPK14 (Homo sapiens, UniProt Q16539); test: In vitro kinase screening (Kinase HotSpot); type: biochemical; details: single dose of 10 µM, P38a/MAPK14
T11 construct: purchased Reaction Biology Corp
Source text: as §2

[13] = read-out: TGI (total growth inhibition concentration)

T5 sequence (P00533 25-1210): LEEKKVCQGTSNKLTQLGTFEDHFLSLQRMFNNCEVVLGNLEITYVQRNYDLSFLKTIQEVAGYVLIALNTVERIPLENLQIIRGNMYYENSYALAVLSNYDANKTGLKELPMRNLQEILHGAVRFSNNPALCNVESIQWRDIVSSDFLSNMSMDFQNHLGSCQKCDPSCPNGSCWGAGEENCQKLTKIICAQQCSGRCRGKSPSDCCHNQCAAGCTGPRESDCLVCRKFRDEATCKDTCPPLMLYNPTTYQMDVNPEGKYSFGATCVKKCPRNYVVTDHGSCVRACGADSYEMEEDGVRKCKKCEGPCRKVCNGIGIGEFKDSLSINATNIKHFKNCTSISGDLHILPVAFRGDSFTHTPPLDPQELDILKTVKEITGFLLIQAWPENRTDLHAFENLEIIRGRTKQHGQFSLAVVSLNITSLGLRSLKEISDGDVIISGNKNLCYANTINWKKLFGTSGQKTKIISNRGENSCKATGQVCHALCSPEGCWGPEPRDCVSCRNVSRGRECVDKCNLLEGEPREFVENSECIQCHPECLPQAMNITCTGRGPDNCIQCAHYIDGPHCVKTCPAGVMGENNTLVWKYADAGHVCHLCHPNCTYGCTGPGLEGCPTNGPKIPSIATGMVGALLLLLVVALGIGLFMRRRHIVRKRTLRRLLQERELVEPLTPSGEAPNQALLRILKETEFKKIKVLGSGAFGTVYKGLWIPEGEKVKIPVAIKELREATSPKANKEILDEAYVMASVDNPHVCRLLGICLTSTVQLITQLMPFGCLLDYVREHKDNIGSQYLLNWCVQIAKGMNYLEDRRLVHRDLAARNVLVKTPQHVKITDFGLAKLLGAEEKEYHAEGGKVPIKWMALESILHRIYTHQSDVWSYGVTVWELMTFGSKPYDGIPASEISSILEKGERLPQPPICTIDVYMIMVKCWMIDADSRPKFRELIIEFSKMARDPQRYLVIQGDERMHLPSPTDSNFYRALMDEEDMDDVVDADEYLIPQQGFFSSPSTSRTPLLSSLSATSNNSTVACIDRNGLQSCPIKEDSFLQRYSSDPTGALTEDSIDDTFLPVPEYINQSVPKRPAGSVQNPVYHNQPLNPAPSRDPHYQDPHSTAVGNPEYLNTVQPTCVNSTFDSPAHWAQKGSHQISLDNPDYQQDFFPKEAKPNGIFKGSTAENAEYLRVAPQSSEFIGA
T6 sequence (P49841 whole entry): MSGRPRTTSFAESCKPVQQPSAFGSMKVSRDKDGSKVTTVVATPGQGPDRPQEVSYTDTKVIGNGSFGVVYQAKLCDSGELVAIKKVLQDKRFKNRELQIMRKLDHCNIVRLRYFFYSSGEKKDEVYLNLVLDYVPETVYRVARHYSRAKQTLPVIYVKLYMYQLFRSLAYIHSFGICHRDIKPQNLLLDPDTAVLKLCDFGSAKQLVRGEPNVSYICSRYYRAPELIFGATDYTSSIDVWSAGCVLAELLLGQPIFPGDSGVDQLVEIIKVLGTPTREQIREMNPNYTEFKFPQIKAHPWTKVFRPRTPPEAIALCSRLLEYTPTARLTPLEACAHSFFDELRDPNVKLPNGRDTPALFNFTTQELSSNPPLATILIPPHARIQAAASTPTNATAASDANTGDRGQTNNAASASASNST
T2 sequence (P15056 whole entry): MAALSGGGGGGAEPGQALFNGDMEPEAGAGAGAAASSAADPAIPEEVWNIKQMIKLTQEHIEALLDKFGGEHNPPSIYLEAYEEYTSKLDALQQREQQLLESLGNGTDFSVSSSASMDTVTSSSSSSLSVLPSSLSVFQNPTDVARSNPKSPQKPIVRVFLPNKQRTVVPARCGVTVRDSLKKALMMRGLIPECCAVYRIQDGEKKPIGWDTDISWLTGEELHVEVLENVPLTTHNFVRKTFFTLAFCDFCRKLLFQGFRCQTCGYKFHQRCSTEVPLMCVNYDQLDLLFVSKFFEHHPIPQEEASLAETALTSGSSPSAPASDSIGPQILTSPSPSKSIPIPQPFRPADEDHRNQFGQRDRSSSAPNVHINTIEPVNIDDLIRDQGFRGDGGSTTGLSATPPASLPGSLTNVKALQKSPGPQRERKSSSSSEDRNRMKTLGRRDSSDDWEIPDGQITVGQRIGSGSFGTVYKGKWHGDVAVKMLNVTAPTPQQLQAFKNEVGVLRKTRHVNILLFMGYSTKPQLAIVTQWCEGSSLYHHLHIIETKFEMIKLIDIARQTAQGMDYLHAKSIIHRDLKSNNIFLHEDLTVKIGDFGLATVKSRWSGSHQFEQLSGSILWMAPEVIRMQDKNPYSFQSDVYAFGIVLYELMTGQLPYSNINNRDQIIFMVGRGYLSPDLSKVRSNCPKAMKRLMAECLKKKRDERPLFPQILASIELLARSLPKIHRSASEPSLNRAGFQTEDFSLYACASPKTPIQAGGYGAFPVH
T10 sequence (P53779 whole entry): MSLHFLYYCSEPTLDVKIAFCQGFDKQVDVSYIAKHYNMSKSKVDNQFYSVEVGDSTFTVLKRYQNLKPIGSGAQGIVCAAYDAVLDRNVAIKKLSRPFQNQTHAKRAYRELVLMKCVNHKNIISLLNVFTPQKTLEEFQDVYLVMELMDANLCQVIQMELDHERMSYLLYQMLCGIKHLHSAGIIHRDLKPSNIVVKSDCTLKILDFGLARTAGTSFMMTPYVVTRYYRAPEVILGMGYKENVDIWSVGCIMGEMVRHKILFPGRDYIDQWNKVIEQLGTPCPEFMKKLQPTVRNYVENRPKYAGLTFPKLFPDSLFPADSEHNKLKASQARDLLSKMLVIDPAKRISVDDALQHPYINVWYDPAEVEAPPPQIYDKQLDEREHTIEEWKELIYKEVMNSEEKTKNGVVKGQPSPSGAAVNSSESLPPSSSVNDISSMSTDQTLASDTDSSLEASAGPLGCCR
T8 sequence (P45983 whole entry): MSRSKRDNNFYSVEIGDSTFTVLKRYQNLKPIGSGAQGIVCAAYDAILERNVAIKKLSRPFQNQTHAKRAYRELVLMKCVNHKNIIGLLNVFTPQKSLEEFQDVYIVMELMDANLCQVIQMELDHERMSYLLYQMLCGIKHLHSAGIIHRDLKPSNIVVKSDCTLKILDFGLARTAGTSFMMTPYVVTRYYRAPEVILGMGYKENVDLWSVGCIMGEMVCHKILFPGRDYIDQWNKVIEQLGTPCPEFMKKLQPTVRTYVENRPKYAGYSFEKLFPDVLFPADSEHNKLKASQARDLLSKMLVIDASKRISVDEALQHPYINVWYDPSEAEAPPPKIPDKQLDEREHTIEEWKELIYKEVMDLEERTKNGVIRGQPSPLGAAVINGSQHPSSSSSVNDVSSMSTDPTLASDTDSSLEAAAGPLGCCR
T11 sequence (Q16539 whole entry): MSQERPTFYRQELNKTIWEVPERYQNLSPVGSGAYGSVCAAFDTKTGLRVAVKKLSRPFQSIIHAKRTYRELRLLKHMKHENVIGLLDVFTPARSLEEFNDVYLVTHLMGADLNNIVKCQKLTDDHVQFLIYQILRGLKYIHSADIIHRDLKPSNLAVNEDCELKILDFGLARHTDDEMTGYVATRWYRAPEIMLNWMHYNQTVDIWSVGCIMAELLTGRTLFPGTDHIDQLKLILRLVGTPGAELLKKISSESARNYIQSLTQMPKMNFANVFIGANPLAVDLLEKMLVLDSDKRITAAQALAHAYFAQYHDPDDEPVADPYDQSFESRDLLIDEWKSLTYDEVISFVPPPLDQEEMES
T3 sequence (P15056 whole entry V600E): as the sequence (P15056 whole entry) above, with V600E counted along it
T9 sequence (P45984 whole entry): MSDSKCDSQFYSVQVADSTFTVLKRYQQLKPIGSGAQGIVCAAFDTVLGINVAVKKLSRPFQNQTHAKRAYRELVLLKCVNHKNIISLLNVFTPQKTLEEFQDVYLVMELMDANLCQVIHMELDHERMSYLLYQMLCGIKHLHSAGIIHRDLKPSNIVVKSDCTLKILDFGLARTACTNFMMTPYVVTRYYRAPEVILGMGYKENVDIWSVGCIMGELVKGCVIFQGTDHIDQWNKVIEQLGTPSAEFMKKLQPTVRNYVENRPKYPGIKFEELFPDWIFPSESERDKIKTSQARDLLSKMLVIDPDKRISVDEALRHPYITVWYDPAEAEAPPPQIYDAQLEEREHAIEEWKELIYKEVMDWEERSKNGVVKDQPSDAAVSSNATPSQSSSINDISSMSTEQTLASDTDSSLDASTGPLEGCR

Question: What does the source list for `O=S(=O)(NCCNc1cc(-c2cn(-c3ccccc3)nc2-c2cccc(O)c2)ccn1)c1ccc(Cl)cc1` [Compound 1l, 4-Chloro-N-(2-((4-(3-(3-hydroxyphenyl)-1-phenyl-1H-pyrazol-4-yl)pyridin-2-yl)amino)ethyl) benzenesulfonamide]?
Answer: IC50 (CNS cancer cell lines): 2850 nM; IC50 (Leukaemia cell lines): 2440 nM; IC50 (breast cancer cell lines): 2480 nM; IC50 (colon cancer cell lines): 2460 nM; IC50 (melanoma cell lines): 2380 nM; IC50 [1]: 3160 nM; IC50 [2]: 3290 nM; IC50 [3]: 3030 nM; IC50 (renal cancer cell lines): 3180 nM; IC50 [4]: 2630 nM; LD50 (lethal dose 50) [4]: 57.1 µM; IC (TGI) [4, 13]: 9500 nM; IC50 [5]: 2340 nM; LD50 (lethal dose 50) [5]: 70.5 µM; IC (TGI) [5, 13]: 8300 nM; LD50 (lethal dose 50) [6]: 61.8 µM; IC50 ([6]; read-out: IC50): 2240 nM; IC (TGI) [6, 13]: 5200 nM; IC50 [7]: 1980 nM; LD50 (lethal dose 50) [7]: >100 µM; IC (TGI) [7, 13]: 5400 nM; IC50 [8]: 2780 nM; LD50 (lethal dose 50) [8]: >100 µM; IC (TGI) [8, 13]: 7660 nM; IC50 [9]: 4370 nM; LD50 (lethal dose 50) [9]: >100 µM; IC (TGI) [9, 13]: >100000 nM; LD50 (lethal dose 50) [10]: >100 µM; IC50 ([10]; read-out: IC50): 2450 nM; IC (TGI) [10, 13]: 12000 nM; IC50 [11]: 2020 nM; LD50 (lethal dose 50) [11]: 7.9 µM; IC (TGI) [11, 13]: 4000 nM; LD50 (lethal dose 50) [12]: 45.9 µM; IC50 ([12]; read-out: IC50): 3210 nM; IC (TGI) [12, 13]: 11400 nM; Inhibition % (ABL1 (T315I)): 6.39 ± 0.35%; Inhibition % (BRAF): 21.28 ± 0.21%; Inhibition % (BRAF (V600E)): 48.09 ± 0.45%; Inhibition % (CDK2/cyclin E): 8.36 ± 0.95%; Inhibition % (EGFR): 10.33 ± 3.40%; Inhibition % (GSK3b): 15.88 ± 0.21%; Inhibition % (IKKb/IKBKB): 7.80 ± 0.10%; Inhibition % (JNK1): 53.79 ± 0.04%; Inhibition % (JNK2): 44.68 ± 0.01%; Inhibition % (JNK3): 35.70 ± 0.04%; Inhibition % (P38a/MAPK14): 68.43 ± 0.59%

Reference: article PMC6211260 (Journal of Enzyme Inhibition and Medicinal Chemistry, 2018)
